Measured values: PMC12344197 (Bioactive Materials, 2025)
Where a SMILES comes first, the peptide text is derived from it. The star is where a group is joined. Succinyl(20-O-(20S)-CPT) = CC[C@@]1(OC(=O)CCC(=O)*)C(=O)OCc2c1cc1n(c2=O)Cc2cc3ccccc3nc2-1; Biotin = O=C1N[C@H]2[C@H](CS[C@H]2CCCCC(=O)*)N1

How the values were obtained:
[1] = system: Red blood cells (RBCs); assay: Hemolysis assay; format: cell-based, BALB/c mice; details: mouse RBC suspension in PBS, 2 h, OD540; n = 3
[2] = system: 4T1 cells; assay: CCK-8 assay; format: cell-based; details: 20 μM, 4 h incubation, washed, n = 6; for cell viability, no laser: dark, further 24 h
[3] = Zeta potential; format: physicochemical; details: 10 μM in PBS pH 7.4

| Compound | hemolysis [1] | cell viability, no laser [2] | zeta potential [3] | cell viability, + Laser ([2]; 808 nm laser 5 min 1 W cm−2, further 24 h, absence of biotin) |
| --- | --- | --- | --- | --- |
| CC[C@@]1(OC(=O)CCC(=O)NCCCC[C@H](NC(=O)[C@H](Cc2ccccc2)NC(=O)[C@@H](N)Cc2ccccc2)C(=O)N[C@@H](CCCCNC(=O)CCCC[C@@H]2SC[C@@H]3NC(=O)N[C@@H]32)C(=O)O)C(=O)OCc2c1cc1n(c2=O)Cc2cc3ccccc3nc2-1 [FFKK-CPT, Phe-Phe-Lys(CPT)-Lys(Biotin)] (H-FFK(Succinyl(20-O-(20S)-CPT))K(Biotin)-OH) | no significant hemolysis |  |  |  |
| CC[C@@]1(O)C(=O)OCc2c1cc1n(c2=O)Cc2cc3ccccc3nc2-1 [Free CPT, camptothecin] |  | 49.3% |  |  |
| CN1C(=CC=C2CCCC(C=CC3=[N+](C)c4ccccc4C3(C)C)=C2Cl)C(C)(C)c2ccccc21.[Cl-] [free IR775, IR775] |  | above 80% | +23.9 mV | 38.3% |
